Experimental data: article PMC7073886, “Structure–Bioactivity Relationships of Lapatinib Derived Analogs against Schistosoma mansoni” (ACS Medicinal Chemistry Letters, 2020)
Values after ≈ are worked out from the molar mass of the structure shown. Where two headings read alike, the source gives them in different places.

Assays:
Rat hepatocyte Clint = assay type: in vitro ADME; details: rat hepatocytes, intrinsic clearance
adult S. mansoni = test: Phenotypic screen of adult S. mansoni worms, severity scores and descriptors; assay type: cell-based, Schistosoma mansoni; details: for Descriptors (10 µM) 1 h / Severity Scores (10 μM) 1 h / Descriptors (10 µM) 5 h / Severity Scores (10 μM) 5 h / Descriptors (10 µM) 24 h / Severity Scores (10 μM) 24 h / Descriptors (10 µM) 48 h / Severity Scores (10 μM) 48 h: adult S. mansoni; for Descriptors (10 µM) 1 h / Descriptors (10 µM) 5 h / Descriptors (10 µM) 24 h / Descriptors (10 µM) 48 h: phenotypic descriptors; for Severity Scores (10 μM) 1 h / Severity Scores (10 μM) 5 h / Severity Scores (10 μM) 24 h / Severity Scores (10 μM) 48 h: scale 0 (no activity) to 4 (maximal activity)
Method in brief: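 Adult S. mansoni (NMRI isolate, ≥42 days old) were co-incubated with compounds and changes in motility, density, shape and adherence recorded visually over time and concentration. Descriptors converted to severity scores from 0 (no activity) to 4 (maximal).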

[1] = Human plasma protein binding (equilibrium dialysis); assay type: in vitro ADME; details: for human PPB (plasma protein binding): 10 µM, 37 °C
HepG2 cells = test: Drug toxicity to HepG2 cells (MTT); assay type: cell-based; details: HepG2 cells, 48 hours incubation, MTT
[2] = Aqueous pH 7.4 solubility; assay type: physicochemical; details: phosphate buffer pH 7.4, 25 °C, 20-24 h, read-out: aq sol (aqueous solubility)
[3] = Human liver microsomal Clint; assay type: in vitro ADME; details: human liver microsomes, intrinsic clearance
[4] = Log D7.4 shake-flask octanol-water; assay type: physicochemical; details: pH 7.4

| RH CLint (Rat hepatocyte Clint) | human PPB (plasma protein binding) [1] | solubility [2] | HLM Clint [3] | LogD 7.4 [4] | hepatocyte CLint (Rat hepatocyte Clint; read-out: RH CLint) | fraction unbound at 10 µM ([1]; pH 7.4, 37 °C, read-out: human PPB (plasma protein binding) (converted)) | solubility ([2]; aqueous buffer, thermodynamic from solid) | microsomal CLint ([3]; read-out: HLM Clint) | logD [4] | Compound | Descriptors (10 µM) 1 h (adult S. mansoni) | Severity Scores (10 μM) 1 h (adult S. mansoni; 10 μM) | Descriptors (10 µM) 5 h (adult S. mansoni) | Severity Scores (10 μM) 5 h (adult S. mansoni; 10 μM) | Descriptors (10 µM) 24 h (adult S. mansoni) | Severity Scores (10 μM) 24 h (adult S. mansoni; 10 μM) | Descriptors (10 µM) 48 h (adult S. mansoni) | Severity Scores (10 μM) 48 h (adult S. mansoni; 10 μM) | HepG2 TC50 (HepG2 cells) | bioactivity against adult S. mansoni (adult S. mansoni; adult schistosomes, 10 μM) |
| --- | --- | --- | --- | --- | --- | --- | --- | --- | --- | --- | --- | --- | --- | --- | --- | --- | --- | --- | --- | --- |
| 28 µL/min/10^6 cells | 96% | 0.06 µM (≈ 0.0278 µg/mL) | 44 μL/min/mg protein | 3.1 |  |  |  |  |  | CS(=O)(=O)N1CCN(c2ncc(-c3ccc4c(Nc5cnccn5)ccnc4c3)cn2)CC1 [S2a] | none | 0 | none | 0 | none | 0 | none | 0 | > 33 µM |  |
| 100 µL/min/10^6 cells | 82% | 200 µM (≈ 96.3 µg/mL) | 110 μL/min/mg protein | 2.8 |  |  |  |  |  | O=S(=O)(c1ccc(-c2ccc3nccc(NCCC4CCOCC4)c3c2)cc1)N1CCOCC1 [S3h] | none | 0 | none | 0 | none | 0 | none | 0 | 21 µM |  |
| 72 µL/min/10^6 cells | 74% | 38 µM (≈ 17.8 µg/mL) | 70 μL/min/mg protein | 2.7 |  |  |  |  |  | O=S(=O)(c1ccc(-c2ccc3nccc(NCC4CCOCC4)c3c2)cc1)N1CCOCC1 [S3g] | none | 0 | none | 0 | none | 0 | none | 0 | 32 µM |  |
| 30 µL/min/10^6 cells | 72% | 140 µM (≈ 65.5 µg/mL) | 43 μL/min/mg protein | 2.4 |  |  |  |  |  | O=S(=O)(c1ccc(-c2ccc3nccc(N[C@@H]4CCCC[C@H]4O)c3c2)cc1)N1CCOCC1 (relative stereo) [S3d] | none | 0 | none | 0 | none | 0 | none | 0 | 32 µM |  |
|  |  |  |  |  | 85 µL/min/1e6 cells | 0.01 | 34 µM (≈ 15.2 µg/mL) | 270 µL/min/mg | 3.7 | O=S(=O)(c1ccc(-c2ccc3nccc(Nc4ncccn4)c3c2)cc1)N1CCOCC1 [S3b] | S, on sides | 2 | S, on sides | 2 |  | 3 |  | 3 | > 34 µM | moderate activity after 1 h |
| 93 µL/min/10^6 cells | 96% | 0.7 µM (≈ 0.27 µg/mL) | > 300 μL/min/mg protein | 3.7 |  |  |  |  |  | c1cnc(Nc2ccnc3cc(-c4cnc(N5CCOCC5)nc4)ccc23)cn1 [S2d] | Shrunk, S | 2 |  | 1 | none | 0 | none | 0 | 39 µM |  |
| 20 µL/min/10^6 cells | 70% | 7 µM (≈ 3.17 µg/mL) | 59 μL/min/mg protein | 2.3 |  |  |  |  |  | O=S(=O)(c1ccc(-c2ccc3nccc(NC4CCOCC4)c3c2)cc1)N1CCOCC1 [S3f] |  | 1 |  | 1 |  | 1 |  | 1 | 16 µM |  |
